Laboratory results reported in patent publication US10570176B2, “Anti-hepatitis B virus X protein polypeptide pharmaceutical” (priority 2015, dated 2020).
Non-standard residues stand in square brackets, D forms with d. Residues, ends and D or L forms follow the SMILES beside them.

Tests used:
Format in all cases: cell-based
HepG2.2.15 cells = test: HBeAg secretion ELISA in HepG2.2.15 cells; conditions: 0.1, 1, 10, 100 μM
Procedure: (§1) 3. Analysis of function of D-TTK001 on HBeAg secreation in liver cancer cells utilizing enzyme-linked immunosorbent assay (ELISA)
(§2) (i) Biosafety cabinet was ultraviolet sterilized for 30 min and purged for 30 min; DMEM/F12 (1:1) culture medium containing 15% fetal bovine serum, HepAD38 cells (or HepG2.2.15 cells) were taken out, sterilized with 75% alcohol, and placed in the biosafety cabinet.
(§3) (ii) Under aseptic conditions, discard old culture medium, add 3 mL 1×PBS each time, wash twice, add 1 mL 0.25% trypsin, the cells were digested until cell rounding as observed in microscope. Add 5 mL culture medium, dispense cells, count with hemocytometer, and dilute with culture medium to a cell number of 1˜2×10^4 cells/mL.
(iii) Plating 96-well plate. Under aseptic conditions, discard old culture medium, add 3 mL 1×PBS each time, wash twice, add 1 mL 0.05% trypsin, the cells were digested until cell rounding as observed in microscope. Add 10 mL culture medium, dispense cells, count with hemocytometer, and dilute with DMEM/F12(1:1) culture medium, add 100 μL cell suspension into each well to a cell number of 1˜2×10^3 cells/mL. […]
(§4) (x) Stopping: add 50 μL of stop solution into each well, gently shake and mix, measure the result in ten minutes. Set wavelength of microplate reader to 450 nm, measure OD value for each well after zero setting with blank wells.

HepAD38 cells = test: MTT assay, proliferation of HepAD38 cells; conditions: 0.1, 1, 10, 100 μM, 48 hrs
Procedure: (1) Plating cells: suspend HepAD38 cells at exponential phase in RPMI1640 medium with 10% FBS, and plate 4000-5000 cells in a 96-well plate with 100 μL per well.
(2) Culturing cells: within 12 hrs. for adhesion of cultured cells, add different concentrations of synthesized D-TTK001 (or L-TTK001) polypeptides from Example 1 (0.1 μM, 1 μM, 10 μM and 100 μM) into 8 wells for each concentration, and incubate for 48 hrs. in common condition.
(3) Coloration: add 20 μL of MTT solution (5 mg/mL MTT in PBS buffer (pH7.4)) for each well.
(4) Incubate for 4 hrs., and carefully aspirate off the supernatant from the wells. Add 150 μL of DMSO into each well, shake for 10 min until the crystals were dissolved.
(5) Comparison: Read in an ELISA reader at 490 nm to measure the absorbance for each well. Results were calculated using Student's t-test.

[1] = tested on: liver cancer HepAD38 cells integrated with HVB DNA; test: HBeAg secretion ELISA in HepAD38 cells
Procedure: as §1, §2, §3
(iii) Plating 96-well plate. Under aseptic conditions, discard old culture medium, add 3 mL 1×PBS each time, wash twice, add 1 mL 0.05% trypsin, the cells were digested until cell rounding as observed in microscope. Add 10 mL culture medium, dispense cells, count with hemocytometer, and dilute with DMEM/F12(1:1) culture medium, add 100 μL cell suspension into each well to a cell number of 1˜2×10^3 cells/mL. The outer-most wells are not added with cells. Culturing until cell attachment (usually 12 hrs.) and extension. Subsequent tests can be conducted when cells are in good condition.
(2) Applying D-TTK001 (or L-TTK001, i.e., anti-HBxP1#) to liver cancer HepAD38 cells (or HepG2.2.15 cells)
10 mM D-TTK001 (or L-TTK001) mother solution was serially diluted from high concentration to low concentration, added into liver cancer HepAD38 cells (or HepG2.2.15 cells) culture solution to obtain final concentrations of D-TTK001 (or L-TTK001) of 0.1 μM, 1 μM, 10 and 100 μM in respective groups. […]
(3) Applying ELISA to measure HBeAg content in HepAD38 cell (or HepG2.2.15 cell) culture medium
(i) Balancing: place HBeAg assay kit in room temperature for 30 min.
(ii) Preparing solution: dilute concentrated wash liquid for 25 times with purified water.
(iii) Taking out the plate: take out the reaction plate according to experimental requirements (3 wells for negative control, 1 well for positive control, and 1 well for blank control).
(iv) Adding sample: add 75 μL of test samples or negative/positive control into respective wells, gently shake and mix.
(v) Incubating: after sealed with microplate sealer, incubate at 37° C. for 60 min.
(vi) Adding enzyme: add 50 μL of enzyme conjugates into each well except for blank wells, gently shake and mix.
(vii) Incubating: after sealed with microplate sealer, incubate at 37° C. for 30 min.
(viii) Washing plate: remove microplate sealer carefully, manually wash plate for 5 times, pat dry.
(ix) Developing color: add 50 μL each of color-developing agent A and B liquid, gently shake and mix, develop color in dark placed at 37° C. for 30 min.
as §4
The invention also investigates the role of the functional variants of the polypeptide and functional fragments thereof. The sequences as shown in the following table are artificially synthesized D-amino acid substituted sequences on the basis of L-TTK001 (i.e., anti-HBxP1#). The polypeptide fragments were artificially synthesized according to the sequences (method as above), and then, above-mentioned ELISA method was adopted to observe the change in the functions of the polypeptides.

With CSCC[C@@H](NC(=O)[C@H](NC(=O)[C@@H](C)NC(=O)[C@@H](CO)NC(=O)CN)C(C)C)C(=O)N[C@H](Cc1ccccc1)C(=O)N[C@H](CO)C(=O)N[C@H](CO)C(=O)N[C@H](CCCCN)C(=O)N[C@H](CCC(=O)O)C(=O)N[C@H](CCCNC(=N)N)C(=O)NCC(=O)O [D-TTK001, Gly-D-Ser-D-Ala-D-Val-D-Met-D-Phe-D-Ser-D-Ser-D-Lys-D-Glu-D-Arg-Gly] (H-G[dS][dA][dV][dM][dF][dS][dS][dK][dE][dR]G-OH; N-terminus and C-terminus assumed) the “Minimum effective dose on HBeAg secretion levels” value (HepG2.2.15 cells) was 0.1 µM, the “Minimum effective dose on growth and proliferation (MTT)” value (HepAD38 cells) was 10 µM and the “Inhibition of HBeAg secretion levels” value ([1]; 10 μM) was “most significant effect”. The “Minimum effective dose on HBeAg secretion levels” value ([1]; 0.1, 1, 10, 100 μM) was 0.1 µM.
